As a reminder, the IC50 is the concentration that inhibits the measured activity by half.

The results in this text go back to patent US10464947B2 (Incyte Corporation, priority 2013, dated 2019).

Some results are limits rather than exact numbers.

The experiment has as its system KMS.12.BM cells. Description: KMS.12.BM Cell Viability Assay (Example B1). In kind it is cell-based, human. Particulars: Homo sapiens, 72 h, 3 days, Cell Titer-GLO, read-out: KMS cellular IC50. The method, then:
KMS.12.BM cell line (human myeloma) was purchased from JCRB (Osaka, Japan) and maintained in RPMI with 10% FBS culture medium. To measure the cytotoxic activity of the compounds through ATP quantitation, the KMS.12.BM cells are plated in the RPMI culture medium at 5000 cells/well/per 100 μL into a 96-well polystyrene clear black tissue culture plate (Greiner-bio-one through VWR, NJ), in the presence or absence of a concentration range of test compounds. After 3 days, […] Cell Titer-GLO Luminescent (Promega, Madison, Wis.) cell culture agent is added to each well for 10 min. at room temperature to stabilize the luminescent signal. This determines the number of viable cells in culture based on quantitation of the ATP present, which signals the presence of metabolically active cells.
On the technique in general: Cellular ATP, detected with luciferase, serves as a proxy for viable cell number.
On to `Cc1noc(C)c1-c1ccc2nc(N3CCC(C)(O)CC3)n3c2c1OC[C@@H]3c1ccccn1` [Example 194, 1-[(4S)-7-(3,5-dimethylisoxazol-4-yl)-4-pyridin-2-yl-4,5-dihydroimidazo[1,5,4-de][1,4]benzoxazin-2-yl]-4-methylpiperidin-4-ol], for which the concentration for half-maximal inhibition (IC50) is less than 1 µM.
Consider `Cc1noc(C)c1-c1cc(-c2cn[nH]c2C)c2[nH]c(=O)n3c2c1OCC3c1ccccn1` (stereo not drawn) [Example 257, 7-(3,5-dimethylisoxazol-4-yl)-9-(3-methyl-1H-pyrazol-4-yl)-4-pyridin-2-yl-4,5-dihydroimidazo[1,5,4-de][1,4]benzoxazin-2(1H)-one], for which the half-inhibitory concentration (IC50) is less than 1 µM.
As to `CCC(=O)N[C@@H]1CCN(c2nc3ccc(-c4c(C)noc4C)c4c3n2[C@@H](c2ccccn2)CO4)C1` [Example 208, N-{(3R)-1-[(4S)-7-(3,5-dimethylisoxazol-4-yl)-4-pyridin-2-yl-4,5-dihydroimidazo[1,5,4-de][1,4]benzoxazin-2-yl]pyrrolidin-3-yl}propanamide], the IC50 was less than 1 µM.
For `Cc1noc(C)c1-c1cc(F)c2nc(N(C)C)n3c2c1OCC3c1cccnc1` (stereo not drawn) [Example 156, 7-(3,5-Dimethylisoxazol-4-yl)-9-fluoro-N,N-dimethyl-4-pyridin-3-yl-4,5-dihydroimidazo[1,5,4-de][1,4]benzoxazin-2-amine], the IC50 is less than 1 µM.
For `Cn1nccc1-c1ccc2[nH]c(=O)n3c2c1OCC3c1ccccc1` (stereo not drawn) [Example 35, 7-(1-Methyl-1H-pyrazol-5-yl)-4-phenyl-4,5-dihydroimidazo[1,5,4-de][1,4]benzoxazin-2(1H)-one], the IC50 is less than 1 µM.
For `Cc1noc(C)c1-c1cc(CNc2ccccc2)c2[nH]c(=O)n3c2c1OCC3c1ccccn1` (stereo not drawn) [Example 262, 9-(anilinomethyl)-7-(3,5-dimethylisoxazol-4-yl)-4-pyridin-2-yl-4,5-dihydroimidazo[1,5,4-de][1,4]benzoxazin-2(1H)-one], the concentration for half-maximal inhibition (IC50) was less than 1 µM.
Turning to `Cc1noc(C)c1-c1ccc2nc(N3CCCN(C(=O)OC(C)(C)C)CC3)n3c2c1OC[C@@H]3c1ccccn1` [Example 197, tert-butyl 4-[(4S)-7-(3,5-dimethylisoxazol-4-yl)-4-pyridin-2-yl-4,5-dihydroimidazo[1,5,4-de][1,4]benzoxazin-2-yl]-1,4-diazepane-1-carboxylate], the 50% inhibitory concentration (IC50) is less than 1 µM.
Consider `CC(=O)NCc1ncccc1C1COc2c(-c3c(C)noc3C)ccc3[nH]c(=O)n1c23` (stereo not drawn) [Example 131, N-({3-[7-(3,5-Dimethylisoxazol-4-yl)-2-oxo-1,2,4,5-tetrahydroimidazo[1,5,4-de][1,4]benzoxazin-4-yl]pyridin-2-yl}methyl)acetamide], for which the concentration for half-maximal inhibition (IC50) is less than 1 µM.
The value for `Cc1noc(C)c1-c1ccc2nc(N3CC[C@@H](NC(=O)C(C)C)C3)n3c2c1OC[C@@H]3c1ccccn1` [Example 209, N-{(3R)-1-[(4S)-7-(3,5-dimethylisoxazol-4-yl)-4-pyridin-2-yl-4,5-dihydroimidazo[1,5,4-de][1,4]benzoxazin-2-yl]pyrrolidin-3-yl}-2-methylpropanamide] was less than 1 µM; that for `Cc1noc(C)c1-c1ccc2nc(-c3ccccc3)n3c2c1OCC3c1ccccc1` (stereo not drawn) [Example 41, 7-(3,5-Dimethylisoxazol-4-yl)-2,4-diphenyl-4,5-dihydroimidazo[1,5,4-de][1,4]benzoxazine] was less than 1 µM.
Turning to `Cc1noc(C)c1-c1ccc2nc(N3CC[C@H](N(C)C)C3)n3c2c1OC[C@@H]3c1ccccn1` [Example 180B, (3S)-1-[(4S)-7-(3,5-dimethylisoxazol-4-yl)-4-pyridin-2-yl-4,5-dihydroimidazo[1,5,4-de][1,4]benzoxazin-2-yl]-N,N-dimethylpyrrolidin-3-amine], the 50% inhibitory concentration (IC50) is less than 1 µM.
As to `CCC(=O)NC1CN(c2nc3ccc(-c4c(C)noc4C)c4c3n2[C@@H](c2ccccn2)CO4)C1` [Example 232, N-{1-[(4S)-7-(3,5-dimethylisoxazol-4-yl)-4-pyridin-2-yl-4,5-dihydroimidazo[1,5,4-de][1,4]benzoxazin-2-yl]azetidin-3-yl}propanamide], the IC50 was less than 1 µM.
